Reference: patent publication US6265437A, “Aminoalkanesulphonic acid derivatives, their preparation and their use as medicaments” (LIPHA, priority 2000, dated 2001)

Experiment: displacement of tritiated calcium acetylhomotaurinate from a preparation of rat brain section
Assay type: binding
Conditions: in vitro, displacement of titiated calcium acetylhomotaurinate
Excerpt: In in vitro tests, it has furthermore been shown that these compounds have the ability to displace titiated calcium acetylhomotaurinate from a preparation of rat brain section.

Row | SMILES | IC50 [µM]
1 | CC(=O)NC(C)CCS(=O)(=O)O (centres unmarked) [Example 17, calcium 3-(acetylamino)-3-methylpropanesulphonate] | 93
2 | CC(C)(C)C(=O)NCCCS(=O)(=O)O [Example 15, magnesium 3-(2,2-(dimethyl)propanoylamino)propanesulphonate] | 49.5
3 | CC(C)CC(=O)NCCCS(=O)(=O)O [Example 14, magnesium 3-(3-(methyl)butanoylamino)propanesulphonate] | 42

Second part, the molecule after the results:

Row | IC50 [µM] | SMILES
4 | 46.9 | CC(C)(C)C(=O)NCCCS(=O)(=O)O [Example 1, calcium 3-(2-2-(dimethyl)propanoylamino)propanesulphonate]
5 | 28.9 | CC(C)C(=O)NCCCS(=O)(=O)O [Example 3, magnesium 3-(2-(methyl)propanoylamino)propanesulphonate]
